In ChEMBL document CHEMBL3797131, “Discovery and optimization of 1,7-disubstituted-2,2-dimethyl-2,3-dihydroquinazolin-4(1H)-ones as potent and selective PKCθ inhibitors” (Bioorg Med Chem, 2016):

How the values were obtained:
Type in all cases: ADME, organism-based
[1] = Clearance in Balb/c mouse at 1 mg/kg, po and 0.1 mg/kg, iv; settings: in vivo
[2] = Plasma concentration in Balb/c mouse at 10 mg/kg to 100 mg/kg, po after 4 hrs
[3] = Oral bioavailability in Balb/c mouse at 1 mg/kg; settings: in vivo
[4] = AUC in Balb/c mouse at 1 mg/kg, po; settings: in vivo

clearance [1]	concentration at 4 h [2]	bioavailability [3]	AUC [4]	Compound
27.3 mL/min/kg	2000 nM	28%	172 ng·h/mL	C[C@H](c1ccccc1)N1c2cc(-n3c(=O)[nH]c4ncccc43)ccc2C(=O)NC1(C)C
143 mL/min/kg		12%	16 ng·h/mL	CC1(C)NC(=O)c2ccc(-n3c(=O)[nH]c4ncccc43)cc2N1Cc1ccccc1
107 mL/min/kg		7%	11 ng·h/mL	C[C@@H](c1ccccc1)N1c2cc(-n3c(=O)[nH]c4ncccc43)ccc2C(=O)NC1(C)C
